The melting point is the temperature, or range, at which the solid turns liquid. The compound `CCN(CC)CCc1c[nH]c2ccc(NS(=O)(=O)c3sc4ccc(Cl)cc4c3C)cc12` [Example 1c, N-[3-(2-diethylaminoethyl)-1H-indol-5-yl]-5-chloro-3-methylbenzo[b]thiophene-2-sulphonamide] displayed a melting point of 170 to 173 °C.
Next, `CC(=O)c1ccc(S(=O)(=O)Nc2ccc3c(ccn3CCN(C)C)c2)cc1` [Example 21e, N-[1-(2-dimethylaminoethyl)-1H-indole-5-yl]-4-acetylbenzenesulfonamide]: 175 °C (dec.).
The same measure for `CN1CCC(c2c[nH]c3ccc(NS(=O)(=O)c4ccc(-c5ccccc5)cc4)cc23)CC1` [Example 15c, N-[3-(1-methylpiperidin-4-yl)-1H-indol-5-yl]-4-phenylbenzenesulphonamide]: 247 to 248 °C; for `Cl.N#Cc1ccc(NC(=O)CN2CCC(N3C(=O)OCc4cc(Cl)ccc43)CC2)cc1`: 274 to 278 °C; for `Cl.O=C(CN1CCC(N2C(=O)OCc3ccccc32)CC1)Nc1ccc2c(c1)CCC2`: 230 to 231 °C.
Next, `CN(C)CCn1ccc2ccc(NS(=O)(=O)c3cc(Cl)cc(Cl)c3)cc21` [Example 8f, N-[1-(2-Dimethylaminoethyl)-1H-indol-6-yl]-3,5-dichlorobenzenesulfonamide]: 150 to 159 °C; `Cc1ccc2c(c1)COC(=O)N2C1CCN(CC(=O)Nc2ccc(C(=O)c3ccccc3)cc2)CC1.Cl`: 240 to 244 °C.
`CN(C)CCn1ccc2cc(NS(=O)(=O)c3ccc(F)cc3)ccc21` [Example 26e, N-[1-(2-dimethylaminoethyl)-1H-indole-5-yl]-4-fluorobenzenesulfonamide] displayed a melting point of 138 to 140 °C.
The same measure for `Cl.O=C(CN1CCC(N2C(=O)OCc3cc(Cl)ccc32)CC1)Nc1ccc(Cl)cc1`: 279 to 282 °C.
The same measure for `Cc1ccc2c(c1)COC(=O)N2C1CCN(CC(=O)Nc2ccccc2C(F)(F)F)CC1`: 169 to 173 °C; for `Cc1ccc2c(c1)COC(=O)N2C1CCN(CC(=O)Nc2ccc(C3CCCCC3)cc2)CC1`: 155 to 157 °C; for `Cc1ccc2c(c1)COC(=O)N2C1CCN(CC(=O)Nc2ccccc2Cl)CC1`: 146 to 148 °C.
For `O=S(=O)(Nc1ccc2[nH]cc(CCN3CCOCC3)c2c1)c1ccc(-c2ccccc2)cc1` [Example 51c, N-{3-[2-(morpholin-4-yl)ethyl]-1H-indol-5-yl}-4-phenylbenzenesulphonamide], the melting point lay within 225 to 228 °C.
Next, `Cc1ccc2c(c1)COC(=O)N2C1CCN(CC(=O)Nc2ccc(C3CCCCC3)cc2)CC1.Cl`: 242 to 246 °C; `Cl.O=C1c2ccccc2-c2cc(NC(=O)C(c3ccccc3)N3CCC(N4C(=O)OCc5ccccc54)CC3)ccc21` (stereo not drawn): 247 to 249 °C.
`CCN(CC)CCn1ccc2cc(NS(=O)(=O)c3cccc4ccccc34)ccc21` [Example 30e, N-(1-(2-(diethylamino)ethyl)-1H-indol-5-yl)-naphthalene-1-sulfonamide] registered a melting point of 133 to 135 °C.
The same measure for `CCN(CC)CCc1c[nH]c2ccc(N(CC)S(=O)(=O)c3ccc4ccccc4c3)cc12`: 49 to 50 °C; for `O=S(=O)(Nc1ccc2[nH]cc(CCN3CCOCC3)c2c1)c1cccc2cccnc12`: 234 to 235 °C; for `Cc1cccc2c1N(C1CCN(CC(=O)Nc3ccc(C(F)(F)F)cc3)CC1)C(=O)OC2.Cl`: 264 to 274 °C.
`CN1CCN(CCc2c[nH]c3ccc(NS(=O)(=O)c4ccc5ccccc5c4)cc23)CC1` yielded a melting point of 129 to 131 °C.
With `CN(C)CCn1ccc2cc(NS(=O)(=O)Cc3ccccc3)ccc21` [Example 15e, N-[1-(2-dimethylaminoethyl)-1H-indole-5-yl]-1-phenylmethanesulfonamide], the melting point is 163 to 166 °C.
On to `O=S(=O)(Nc1ccc2[nH]cc(CCN3CCOCC3)c2c1)c1ccc2ccccc2c1`, for which the melting point was in the range of 85 to 90 °C.
In the case of `Cc1c(S(=O)(=O)Nc2ccc3[nH]cc(CN4CCN(C)CC4)c3c2)sc2ccc(Cl)cc12` [Example 19c, N-[3-(4-methylpiperazin-1-yl)methyl-1H-indol-5-yl]-5-chloro-3-methylbenzo[b]thiophene-2-sulphonamide], the melting point is 230 °C (dec.).
In the case of `CN(C)CCn1ccc2c(NS(=O)(=O)c3ccc(-c4ccccc4)cc3)cccc21` [Example 4d, N-[1-(2-dimethylaminoethyl)-1H-indole-4-yl]-4 phenylbenzenesulfonamide], the melting point lay in the range of 137 to 140 °C.
The same measure for `O=S(=O)(Nc1ccc2ccn(CCN3CCCC3)c2c1)c1ccc(Oc2ccccc2)cc1` [Example 15f, 4-Phenoxy-N-(1-(2-(pyrrolidin-1-yl)ethyl)-1H-indol-6-yl)-benzenesulfonamide]: 59 to 62 °C.
On to `CN(C)CCn1ccc2cc(NS(=O)(=O)c3cccc(Br)c3)ccc21` [Example 13e, N-[1-(2-dimethylaminoethyl)-1H-indole-5-yl]-3-bromobenzenesulfonamide], for which the melting point lay in the range of 114 to 116 °C.
Next, `O=S(=O)(Nc1ccc2c(ccn2CCN2CCCC2)c1)c1cccc2ccccc12` [Example 17e, N-[1-(2-pyrrolidine-1-yl-ethyl)-1H-indole-5-yl]-naphthalene-1-sulfonamide]: 186 to 189 °C; `CCN(CC)CCn1ccc2cc(NS(=O)(=O)c3csc4ccccc34)ccc21` [Example 41e, N-(1-(2-(diethylamino)ethyl)-1H-indol-5-yl)benzo[b]thiophene-3-sulfonamide]: 62 to 75 °C.
The compound `Cc1c(S(=O)(=O)Nc2cccc3ccn(CCN(C)C)c23)sc2ccc(Cl)cc12` [Example 2g, N-[1-(2-dimethylaminoethyl)-1H-indole-7-yl]-5-chloro-3-methylbenzo[b]thiophene-2-sulfonamide] registered a melting point of 57 to 65 °C.
The compound `CN(C)CCn1ccc2cc(NS(=O)(=O)c3cc(Cl)c(Cl)s3)ccc21` [Example 20e, N-[1-(2-dimethylaminoethyl)-1H-indole-5-yl]-4,5-dichlorothiophene-2-sulfonamide] gave a melting point of 120 to 123 °C.
Take `O=S(=O)(Nc1ccc2[nH]cc(CCN3CCOCC3)c2c1)c1cccc2ccccc12`: the melting point was 218 to 220 °C.
The same measure for `CCN(CC)CCc1c[nH]c2ccc(NS(=O)(=O)c3cccc4ccccc34)cc12.Cl` [Example 3c, Hydrochloride N-[3-(2-diethylaminoethyl)-1H-indol-5-yl]naphthalene-1-sulphonamide]: 255 to 257 °C.
Next, `O=S(=O)(Nc1ccc2[nH]cc(CCN3CCCC3)c2c1)c1ccc2ccccc2c1`: 180 to 182 °C; `CN(C)CCc1c[nH]c2ccc(NS(=O)(=O)c3cccc4ccccc34)cc12` [Example 8c, N-[3-(2-dimethylaminoethyl)-1H-indol-5-yl]naphthalene-1-sulphonamide]: 203 to 205 °C; `Cc1cc2cc(NS(=O)(=O)c3csc4ccccc34)ccc2n1CCN(C)C` [Example 40e, N-(1-(2-(dimethylamino)ethyl)-2-methyl-1H-indol-5-yl)benzo[b]thiophene-3-sulfonamide]: 167 to 169 °C.
The same measure for `O=S(=O)(Nc1ccc2c(ccn2CCCN2CCCCC2)c1)c1ccc(Oc2ccccc2)cc1` [Example 49e, 4-phenoxy-N-(1-(3-(piperidin-1-yl)propyl)-1H-indol-5-yl)benzenesulfonamide]: 64 to 66 °C; for `CN(C)CCn1ccc2c(NS(=O)(=O)c3c(Cl)nc4sccn34)cccc21` [Example 8d, 6-chloro-N-[1-(2-dimethylaminoethyl)-1H-indol-4-yl]-imidazo[2,1-b]thiazole-5-sulfonamide]: 95 to 100 °C.
`Cl.N#Cc1ccc(NC(=O)CN2CCC(N3C(=O)OCc4ccccc43)CC2)cc1` yielded a melting point of 268 to 282 °C.
`O=C(CN1CCC(N2C(=O)OCc3ccc(Cl)cc32)CC1)Nc1ccc2oc3ccccc3c2c1` came in with a melting point of 237 °C.
On to `O=S(=O)(CCc1cccc2ccccc12)Nc1ccc2c(ccn2CCCN2CCCCC2)c1` [Example 48e, 2-(naphth-1-yl)-N-(1-(3-(piperidin-1-yl)propyl)-1H-indol-5-yl)ethanesulfonamide], for which the melting point lay within 59 to 61 °C.
Next, `Cc1ccc2c(c1)COC(=O)N2C1CCN(CC(=O)Nc2ccc(Oc3ccccc3)cc2)CC1.Cl`: 234 to 237 °C; `CN(C)CCc1c[nH]c2ccc(NS(=O)(=O)c3ccc(Oc4ccccc4)cc3)cc12`: 152 to 154 °C; `Cc1cccc2c1N(C1CCN(S(=O)(=O)c3cccc(Cl)c3Cl)CC1)C(=O)OC2`: 184 to 185 °C.
As for `CCN(CC)CCCc1c[nH]c2ccc(NS(=O)(=O)c3sc4ccc(Cl)cc4c3C)cc12` [Example 43c, N-[3-(3-diethylaminopropyl)-1H-indol-5-yl]-5-chloro-3-methylbenzo[b]thiophene-2-sulphonamide], the melting point was 156 to 158 °C.
Consider `CCN(CC)CCc1c[nH]c2ccc(NS(=O)(=O)c3cccc4c(Cl)cccc34)cc12`, for which the melting point fell in the range of 154 to 156 °C.
In turn, `O=C(CN1CCC(N2C(=O)OCc3c(F)cccc32)CC1)Nc1ccc2[nH]c3ccccc3c2c1` showed a melting point of 195 °C.
On to `CN(C)CCc1c[nH]c2ccc(NS(=O)(=O)c3ccc4c(Cl)cccc4c3)cc12`, for which the melting point is 230 to 240 °C (dec.).
Consider `CN1CCC(c2c[nH]c3ccc(NS(=O)(=O)c4cccc5ccccc45)cc23)CC1.Cl` [Example 13c, N-[3-(1-methylpiperidin-4-yl)-1H-indol-5-yl]naphthalene-1-sulphonamide hydrochloride], for which the melting point is 212 °C (dec.).
In the case of `CN1CCC(c2c[nH]c3ccc(NS(=O)(=O)c4ccc(Cl)s4)cc23)CC1` [Example 14c, N-[3-(1-methylpiperidin-4-yl)-1H-indol-5-yl]-5-chlorothiophene-2-sulphonamide], the melting point was 284 °C (dec.).
`Cl.O=C(CN1CCC(N2C(=O)OCc3cc(Cl)ccc32)CC1)Nc1ccccc1` came in with a melting point of 265 to 277 °C.
Next, `Cl.O=C(CN1CCC(N2C(=O)OCc3ccccc32)CC1)Nc1ccccc1C(=O)c1ccccc1`: 211 to 216 °C.

The record behind these values is US20070059364A1, “Active substance combination comprising a compound with npy receptor affinity and a compound with 5-ht6 receptor affinity” (Laboratorios Del Dr. Esteve S.A., priority 2003, published 2007).
